System: 695427-040-R-J1-PDC complex spheroid viability
Assay: Anticancer human tumor 695427-040-R-J1-PDC patient-derived colon adenocarcinoma cell line growth inhibition [POLQ]
Details: for IC50: curve of first compound; for viability, T/C: stronger effect = lower value; active = viability on the fitted dose curve at most 10% of control; inactive = the rest
Outline: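 Complex spheroid viability model combining PDC tumour cells with endothelial (HUVEC) and MSC stromal cells. Novobiocin, ART-558 or RP6685 were tested singly and in combination with standard and investigational anticancer drugs. Each was titrated in half-log steps from near clinical Cmax, or from 10 microM where Cmax was unknown.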

[1] = second compound 0.0316 µM, first compound 0.0316 µM
[2] = second compound 0.0316 µM, first compound 0.1 µM
[3] = second compound 0.1 µM, first compound 0.0316 µM
[4] = second compound 0.1 µM, first compound 0.1 µM
[5] = second compound 0.316 µM, first compound 0.0316 µM
[6] = second compound 0.316 µM, first compound 0.1 µM
[7] = second compound 1 µM, first compound 0.0316 µM
[8] = second compound 1 µM, first compound 0.1 µM
[9] = second compound 3.16 µM, first compound 0.0316 µM
[10] = second compound 3.16 µM, first compound 0.1 µM
[11] = second compound 10 µM, first compound 0.0316 µM
[12] = second compound 10 µM, first compound 0.1 µM
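Note: spheroids exposed to compounds for seven days.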
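Throughout, for viability, T/C: 100% = DMSO vehicle control viability.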

CC[C@@]1(O)C(=O)OCc2c1cc1n(c2=O)Cc2cc3c(CN(C)C)c(O)ccc3nc2-1 + COC1C(OC(N)=O)C(O)C(Oc2ccc3c(O)c(NC(=O)c4ccc(O)c(CC=C(C)C)c4)c(=O)oc3c2C)OC1(C)C
inactive: viability, T/C (second compound 0.0316 µM, first compound 0.000316 µM) 103% | viability, T/C (second compound 0.0316 µM, first compound 0.001 µM) 96.8% | viability, T/C (second compound 0.0316 µM, first compound 0.00316 µM) 97.8% | viability, T/C (second compound 0.0316 µM, first compound 0.01 µM) 103% | viability, T/C [1] 100% | viability, T/C [2] 95.1% | viability, T/C (second compound 0.1 µM, first compound 0.000316 µM) 116% | viability, T/C (second compound 0.1 µM, first compound 0.001 µM) 104% | viability, T/C (second compound 0.1 µM, first compound 0.00316 µM) 101% | viability, T/C (second compound 0.1 µM, first compound 0.01 µM) 102% | viability, T/C [3] 104% | viability, T/C [4] 99.5% | viability, T/C (second compound 0.316 µM, first compound 0.000316 µM) 102% | viability, T/C (second compound 0.316 µM, first compound 0.001 µM) 102% | viability, T/C (second compound 0.316 µM, first compound 0.00316 µM) 106% | viability, T/C (second compound 0.316 µM, first compound 0.01 µM) 104% | viability, T/C [5] 105% | viability, T/C [6] 92.4% | viability, T/C (second compound 1 µM, first compound 0.000316 µM) 108% | viability, T/C (second compound 1 µM, first compound 0.001 µM) 102% | viability, T/C (second compound 1 µM, first compound 0.00316 µM) 99.6% | viability, T/C (second compound 1 µM, first compound 0.01 µM) 98.1% | viability, T/C [7] 106% | viability, T/C [8] 93.1% | viability, T/C (second compound 3.16 µM, first compound 0.000316 µM) 97.2% | viability, T/C (second compound 3.16 µM, first compound 0.001 µM) 101% | viability, T/C (second compound 3.16 µM, first compound 0.00316 µM) 103% | viability, T/C (second compound 3.16 µM, first compound 0.01 µM) 97.2% | viability, T/C [9] 105% | viability, T/C [10] 86% | viability, T/C (second compound 10 µM, first compound 0.000316 µM) 107% | viability, T/C (second compound 10 µM, first compound 0.001 µM) 103% | viability, T/C (second compound 10 µM, first compound 0.00316 µM) 105% | viability, T/C (second compound 10 µM, first compound 0.01 µM) 106% | viability, T/C [11] 105% | viability, T/C [12] 93%
> 0.1 µM: IC50 (second compound 0.0316 µM) | IC50 (second compound 0.1 µM) | IC50 (second compound 0.316 µM) | IC50 (second compound 1 µM) | IC50 (second compound 3.16 µM) | IC50 (second compound 10 µM)

COc1cc(C2c3cc4c(cc3C(OC3OC5COC(C)OC5C(O)C3O)C3COC(=O)C23)OCO4)cc(OC)c1O (centres undefined) + COC1C(OC(N)=O)C(O)C(Oc2ccc3c(O)c(NC(=O)c4ccc(O)c(CC=C(C)C)c4)c(=O)oc3c2C)OC1(C)C
> 10 µM: IC50 (second compound 0.0316 µM) | IC50 (second compound 0.1 µM) | IC50 (second compound 0.316 µM) | IC50 (second compound 1 µM) | IC50 (second compound 3.16 µM) | IC50 (second compound 10 µM)
inactive: viability, T/C [1] 96.7% | viability, T/C [2] 92.3% | viability, T/C (second compound 0.0316 µM, first compound 0.316 µM) 98.8% | viability, T/C (second compound 0.0316 µM, first compound 1 µM) 96.2% | viability, T/C (second compound 0.0316 µM, first compound 3.16 µM) 98.4% | viability, T/C (second compound 0.0316 µM, first compound 10 µM) 82.4% | viability, T/C [3] 101% | viability, T/C [4] 93.4% | viability, T/C (second compound 0.1 µM, first compound 0.316 µM) 101% | viability, T/C (second compound 0.1 µM, first compound 1 µM) 93.8% | viability, T/C (second compound 0.1 µM, first compound 3.16 µM) 99.5% | viability, T/C (second compound 0.1 µM, first compound 10 µM) 83.6% | viability, T/C [5] 104% | viability, T/C [6] 92.3% | viability, T/C (second compound 0.316 µM, first compound 0.316 µM) 94.7% | viability, T/C (second compound 0.316 µM, first compound 1 µM) 97% | viability, T/C (second compound 0.316 µM, first compound 3.16 µM) 95.3% | viability, T/C (second compound 0.316 µM, first compound 10 µM) 80.6% | viability, T/C [7] 107% | viability, T/C [8] 98.5% | viability, T/C (second compound 1 µM, first compound 0.316 µM) 112% | viability, T/C (second compound 1 µM, first compound 1 µM) 100% | viability, T/C (second compound 1 µM, first compound 3.16 µM) 96.4% | viability, T/C (second compound 1 µM, first compound 10 µM) 83.7% | viability, T/C [9] 99.4% | viability, T/C [10] 98.3% | viability, T/C (second compound 3.16 µM, first compound 0.316 µM) 101% | viability, T/C (second compound 3.16 µM, first compound 1 µM) 101% | viability, T/C (second compound 3.16 µM, first compound 3.16 µM) 98.9% | viability, T/C (second compound 3.16 µM, first compound 10 µM) 82.8% | viability, T/C [11] 94.5% | viability, T/C [12] 95.2% | viability, T/C (second compound 10 µM, first compound 0.316 µM) 95.3% | viability, T/C (second compound 10 µM, first compound 1 µM) 99.9% | viability, T/C (second compound 10 µM, first compound 3.16 µM) 103% | viability, T/C (second compound 10 µM, first compound 10 µM) 83.2%
